Here are results for two compounds from patent US9657017B2, “Crystal form of (R)-praziquantel and preparation method and application thereof” (TONGLI BIOMEDICAL CO., LTD., priority 2013, dated 2017).

Values after ≈ are worked out from the molar mass of the structure shown. Where two headings read alike, the source gives them in different places.

The conditions of data set [1]: rat, in vivo, po, 75 mg/kg. The text has this: Investigation on characteristic of the plasma concentrations of (R)-praziquantel crystal form in rats after oral administration, which was specifically as follow: […]
Another data set has as its system clonorchis sinensis. Nature of the data set: In vivo anti-parasitic activity in SD rats infected with clonorchis sinensis. The procedure:
Evaluation of in vivo anti-parasitic activity of (R)-praziquantel crystal form in SD rats infected with clonorchis sinensis, which was specifically as follow: Each of total 29 SD rats with 200˜300 g of body weight were given with 30 metacercariae of clonorchis sinensis via gavage intragastrically. On Day 35 post infection, fecal smear examination was conducted, and worm eggs of clonorchis sinensis were found in all of the smears which confirmed successful modeling. Subsequently, the rats were randomly divided into (R)-praziquantel group (n=14) and blank control group (n=15). […] Seven days after the end of the treatment, worms are recovered from the bile ducts under sterility condition. The averaged number of recovered worms, mean recovery rate of worms and cure rate after treatment were calculated, and the results are shown in Table 5.

Data set [2] is described as follows: Solubility of crystal forms in water and simulated gastric-intestinal fluid. It counts as physicochemical. Conditions: 25° C.; for solubility at 18 h: thermodynamic from solid. The method, then:
About 2 mg of each compound was respectively placed in several glass vials, and pure water, simulated gastric fluid (SGF), simulated intestinal fluid under fasted status (FaSSIF), and simulated intestinal fluid under fed status (FeSSIF) were respectively added to prepare a final sample concentration of 2 mg/mL. The samples were sonicated to be dispersed evenly and then rotated 360 degree-wise to equilibrate for 18 hours at room temperature (25° C.). After the equilibration, the samples were visually inspected to check whether they were completely dissolved, and then filtrated through […] filter membrane. The resulted filtrate was diluted with suitable solvent for HPLC analysis.

Another data set concerns schistosoma japonicum. Nature of the data set: In vitro culture anti-schistosoma japonicum activity (worm activity inhibition). The class given is cell-based. Conditions: for IC50: spasm or paralysis of schistosoma japonicum considered as active, in vitro culture 37° C., read-out: IC50 ± L95 (median inhibitory concentration, 95% confidence interval). The method, then: Comparison of anti-schistosoma japonicum activity between the crystal forms of (R)-praziquantel and praziquantel in in vitro culture experiment, which was specifically as follow: […] An aliquot of the drug solution (5-50 μL) was transferred and diluted with culture medium (prepared by Tyrode's solution and calf serum at 9:1, pH 7.4, containing 100 IU/mL penicillin and 100 IU/mL streptomycin) to a desired concentration (0.0001-100 μg/mL). Japanese white rabbits and Kunming hybrid mice were infected with cercariae of schistosoma japonicum for 5-8 weeks. Under aseptic condition, mesenteric vein and liver were perfused with normal saline, and the recovered schistosomes were washed with Tyrode's solution twice and then transferred into culture medium and cultured at 37° C. for use. […] The worm activity and changes on body surface were observed under stereomicroscope and inverted microscope at room temperature. The active levels of worm were defined as below: • ++++ Worm twitching or rolling intensively; • +++ Worm wriggling or paroxysmally trembling frequently; • ++ Worm migrating freely with enterocinesia; • + Movement of worm weakened and enterocinesia disappeared; • ± No movement of worm was observed under stereomicroscope (×30), and slight movement of mouth and ventral suckers were observed under inverted microscope (×250); • − No movement of worm was observed under inverted microscope (×250); • wherein +++ and ++++ refer to worm excitement; ++ refers to normal worm activity; + and ± refers to inhibition of worm activity; worm was considered to death if the result was still negative after observing for 5 min.

The mark [3] stands for this setting: 100 mg/kg gavage twice a day for two days.

Consider `O=C(C1CCCCC1)N1CC(=O)N2CCc3ccccc3[C@@H]2C1` [(R)-praziquantel crystal form, (R)-praziquantel], for which, in data set [1], the “area under plasma concentration-time curve” value is 3572 ± 1793 ng·h/mL, the peak plasma concentration was determined as 3132 ± 1440 ng/mL and the “time to reach peak plasma concentration” value was 15 min. In addition, in the data set on clonorchis sinensis (setting [3]), the Cure rate is reported as 100% and the “Mean recovery rate of worms” value is 0%. In addition, the “No. of Cured animal” value in the data set on clonorchis sinensis (100 mg/kg gavage twice a day for two days, 14 animals, worms recovered 7 days after treatment) turned out to be 14. The “No. of Average of recovered worm, X ± SD” value in the data set with clonorchis sinensis (100 mg/kg gavage twice a day for two days, worms from bile ducts) stood at 0. Further, the “worm body in rat feces” value with clonorchis sinensis (treatment group) is reported as “no worm body found”. The compound also yielded an Average solubility in data set [2] (FaSSIF (simulated intestinal fluid, fasted), equilibrated 18 hours) of 302 µg/mL. Moreover, the Average solubility in data set [2] (FeSSIF (simulated intestinal fluid, fed), equilibrated 18 hours) was 433 µg/mL. The Average solubility in data set [2] (SGF (simulated gastric fluid), equilibrated 18 hours) is 303 µg/mL. For the same compound, the Average solubility in data set [2] (Water, equilibrated 18 hours) was 305 µg/mL. The “effect on schistosoma japonicum worms” value in the data set on schistosoma japonicum (in vitro culture) was “induce contraction and paralysis”. Besides, the “IC50 relative to that of praziquantel crystal form” value in the data set with schistosoma japonicum (in vitro culture, P<0.01) is “⅕”. In the data set with schistosoma japonicum, the IC50 worked out at 8 ± 4 nM.
The term solubility denotes how much of the substance goes into solution per volume. With `O=C(C1CCCCC1)N1CC(=O)N2CCc3ccccc3C2C1` (racemic) [Praziquantel crystal form, praziquantel], the solubility at 18 h in data set [2] (FaSSIF (simulated intestinal fluid, fasted), equilibrated 18 hours, read-out: Average solubility) was 193 µg/mL (≈ 618 µM); in data set [2] (FeSSIF (simulated intestinal fluid, fed), equilibrated 18 hours, read-out: Average solubility), 313 µg/mL (≈ 1000 µM); in data set [2] (SGF (simulated gastric fluid), equilibrated 18 hours, read-out: Average solubility) it was 192 µg/mL (≈ 615 µM); in data set [2] (Water, equilibrated 18 hours, read-out: Average solubility) it was 199 µg/mL (≈ 637 µM); in data set [2] (water, SGF, FaSSIF and FeSSIF, range over media, read-out: solubility in water and in simulated gastro-intestinal fluid), 190 to 310 µg/mL (≈ 608 to 992 µM). The “effect on schistosoma japonicum worms” value in the data set with schistosoma japonicum (in vitro culture) was “induce contraction and paralysis”. For the same compound, the IC50 with schistosoma japonicum was 42 ± 18 nM.
